According to EP0340198B1, “Immunoassay for the detection of alpha-haloacetamides” (priority 1988, dated 1989):

How the values were obtained:
alachlor antibodies = experiment: inhibition ELISA for alachlor (cross-reactivity studies); assay type: binding, rabbit; conditions: for reaction (cross-reactivity) with the antibodies, in words: relative to alachlor
Protocol: Immunoassays. A known "checkerboard assay" was initially conducted with each serum sample after the first boost to detect the production of antibodies against alachlor. […] The next 7 rows received the subsequent dilutions of the screening antigen. The plate was covered with Parafilm and stored overnight at 4°C. The next morning, the unbound screening antigen was removed from the wells by washing three times with phosphate buffered saline solution (0.01 M phosphate buffer of pH 7.4, 0.15 M NaCl; PBS). The remaining active sites in the wells were blocked with PBS-8% non-fat dry milk solution, (NFDM, 0.3 mL) for 1 hr at 22°C. Serum, which had been stored at -20°C, was freshly thawed and serially diluted (one to two) from 1,000 to 64,000-fold using PBS-T (PBS containing 0.02% Tween 20). Starting with the most concentrated solution, 0.1 mL of the serum solution was pipetted into all 8 wells of column 1; the remaining columns received the subsequent dilutions of the serum solution. The plate was covered and incubated at 22°C for 1.5 hrs. Following triplicate washes of the wells with PBS-T, each of the wells received 0.1 mL of goat anti-rabbit gamma-globulin conjugated to horseradish peroxidase (GAR-HRP) freshly thawed and diluted 4,000 fold with PBS-1% NFDM. After a final wash cycle (4 times) with PBS-T, freshly prepared O-phenylene diamine (PDA) substrate solution (0.2 mL, 0.04 mg/mL PDA and 0.01% H₂O₂ in 0.05 M citric acid and 0.15 M sodium dibasic phosphate, pH 5.0) was dispensed into each of the wells and incubated in the dark at 22°C for 30-60 min. Sulfuric acid (4 N, 50 µL) was added to each of the wells to stop the reaction, and the final absorbances of the wells (490 nm) were recorded.
The inhibition ELISA required one additional step in the assay procedure described above. Equal volumes of the diluted serum and aqueous alachlor standard or unknown sample were mixed and preincubated at 22°C for 1 hr. This mixture (0.1 mL/well) was then analyzed in 6 replicate wells on the plate. The presence of free alachlor inhibited the binding of the antibody to the alachlor-BSA conjugate, resulting in an inhibition of the development of absorbance at 490 nm. The amount of free alachlor was indirectly proportional to the intensity of color developed. Levels of alachlor in unknown water samples were calculated based on the alachlor standards on the same plate. Alachlor standards (0, 0.2, 0.5, 1.0, 3.0, 5.0, and 8.0 ppb in deionized water) were stored at -20°C in 1-mL portions, and were freshly thawed for each assay.
Data Calculations. The lay-out of a typical 96-well microtiter plate is 8 rows of 12 columns in an inhibition ELISA assay for alachlor. The first 6 wells in the first column of wells were not coated with the screening antigen and served as the background wells. The first 6 wells in the remaining 7 columns of wells were reserved for the seven alachlor standards (0 to 8 ppb) listed above. The remaining wells in all 8 rows were used for the samples. The uncorrected absorbances of the wells determined by the Bio-tek reader were used in the following calculations. The median was calculated for the 6 replicate background wells and was then subtracted from the medians of the standards and samples. All the median values were divided by the median of the standard without alachlor (0 ppb) to generate percentages of absorbances. The percent absorbance of the alachlor standards was then plotted on the Y axis against the logarithm (base 10) of the actual concentrations of alachlor on the X axis. A hyperbolic curve was drawn through the standards, and the resulting standard curve was used to calculate the concentrations of alachlor in the unknown samples.
The calculations described above were usually carried out using a computer program.

[1] = tested on: antibodies isolated from the serum of the first bleed of the rabbit; experiment: affinity column binding of 14C-labeled analytes from aqueous solution; conditions: 14C-labeled analogs, test of non-specific binding
Protocol: Affinity Chromatography. The preparation of affinity columns using rabbit antisera was as follows: The rabbit IgG's were purified by passing 5 mL of the antiserum through a column containing 5 mL of the swelled protein A-agarose gel. By monitoring the absorbance at 280 nm in the column effluent, the non-bound proteins were removed by washing with PBS, and the IgG's were then eluted with acetic acid at pH 2.3 (0.58% acetic acid and 0.15 M NaCl). The fractions containing the IgG's were combined and neutralized; based on the UV absorbance at 280 nm (absorbance/1.4 = mg/mL protein), approximately 33 mg of IgG were isolated from 5 mL of serum, which was then lyophilized and stored at -20°C. The reusable protein A-agarose column was stored in PBS containing 0.02% sodium azide at 4°C.
The protein A-purified IgG was immobilized onto Affigel-10 affinity support. Affigel-10 (5 mL) was washed 3 times with isopropyl alcohol and 3 times with cold distilled water in a Buchner funnel. The gel was then added to a solution of IgG (3 mL in 0.1 M HEPES buffer, pH 7.5) at 4°C. Following 4 hrs of stirring, the gel was precipitated by gentle centrifugation and washed with HEPES buffer (3 x 3 mL). The remaining active sites on the gel were blocked by resuspending the gel in water (2 mL) and adding ethanolamine HCl (0.5 mL, 1M), and stirring the mixture at 22°C for 1 hr. The affinity column was useful in adsorbing alachlor and other analytes from aqueous solutions. After binding the alachlor, the column was washed with water (2 mL/min) to remove unbound material and alachlor was eluted with 75% aqueous methanol.
Using the antibodies isolated from the serum of the first bleed of the rabbit, an affinity column for alachlor was constructed to study its utility as an isolation and purification tool. The IgG's in the serum of the rabbit immunized with the alachlor-IgG conjugate were purified with a protein A-agarose column. The purified IgG was then immobilized onto the Affigel-10 support. Alachlor (¹⁴C-labeled) in aqueous solution was passed through the column with a flow rate of 2 mL/min; the column was washed with water and eluted with 75% aqueous methanol. The radioactivity in the wash and eluent were determined by liquid scintillation counting. […] The capacity of the column was less than 1 µg, and once this level was exceeded, alachlor no longer bound to the column. The recovery of applied radioactivity generally ranged from 80% to 100%. In a second experiment, alachlor (0.5 µg) was dissolved into increasing volumes of water ranging from 1 mL to 100 mL.
To eliminate the possibility of non-specific binding of alachlor to the affinity column, other ¹⁴C-labeled analogs were also studied. These included acetanilide herbicides butachlor, acetochlor, metolachlor, and propachlor and the previously mentioned alachlor metabolites mercapturate and its methyl ester. The affinity column bound butachlor and acetochlor, but not metolachlor, propachlor, or mercapturate.

[2] = tested on: antibodies toward butachlor; experiment: inhibition ELISA for butachlor; assay type: binding, rabbits; conditions: for inhibition of the ELISA assay for butachlor: standard solutions at 10 and 50 ppb in DI water
Text: (§1) The generation of antibodies toward butachlor (2-chloro-2′,6′-diethyl-N-(butoxymethyl)acetanilide), amidochlor (2-chloro-2′,6′-diethyl-N-acetamidomethyl acetanilide), and metolachlor (2-chloro-2′-ethyl-6′-methyl-N-(2-methoxy-1-methylethyl)acetanilide) were accomplished following identical procedures as those described for alachlor. The individual 14C-labeled chloroacetanilide was covalently bound to HSA (human serum albumin) with AHT, and to sheep IgG with AMSA.
(§2) The hapten-IgG conjugates were used to immunize rabbits. The corresponding hapten-BSA conjugates were then utilized in checkerboard assays to determine the presence of desired antibodies in the antisera. An inhibition ELISA for butachlor was set up with antiserum, butachlor-HSA screening antigen, and butachlor. Similar assays were also set up for amidochlor and metolachlor.
(§3) The sensitivity of the inhibition ELISA for butachlor, amidochlor, and metolachlor was tested with respective standards prepared in DI water. Using the best antiserum, the butachlor ELISA produced an IC50 of 8 ppb.
(§4) The specificity of the ELISA for butachlor, amidochlor, and metolachlor were tested using standard solutions of alachlor, acetochlor, butachlor, amidochlor, metolachlor, and propachlor at concentrations of 10 and 50 ppb in DI water. At these concentrations, the ELISA assay for butachlor, amidochlor, and metolachlor was each inhibited only by the respective free hapten, and not by any of the other chloroacetanilides.

[3] = tested on: antibodies toward amidochlor; experiment: inhibition ELISA for amidochlor; assay type: binding, rabbits; conditions: for inhibition of the ELISA assay for amidochlor: standard solutions at 10 and 50 ppb in DI water
Text: as §1, §2, §3, §4

[4] = tested on: antibodies toward metolachlor; experiment: inhibition ELISA for metolachlor; assay type: binding, rabbits; conditions: for inhibition of the ELISA assay for metolachlor: standard solutions at 10 and 50 ppb in DI water
Text: as §1, §2, §3, §4

[5] = IC50 of alachlor divided by IC50 of analog x 100, bleed not stated

Molecule | percent cross-reactivity (alachlor antibodies; [5]) | reaction (cross-reactivity) with the antibodies, in words (alachlor antibodies) | further results
oxanilic acid | less than 2.5% | little reaction | 
CCc1cccc(CC)c1N [2,6-diethylaniline] |  | no reaction | 
CCc1cccc(CC)c1NC(=O)CSC |  | no cross-reactivity | 
CCc1cccc(CC)c1N(COC)C(C)=O [norchloro-alachlor] | 22% |  | 
CCc1cccc(CC)c1N(COC)C(=O)CS(C)(=O)=O [sulfone analog] | 9% |  | 
CCc1cccc(CC)c1N(COC)C(=O)CSCC(NC(=O)CCC(N)C(=O)O)C(=O)NCC(=O)O (stereo not shown) [glutathione conjugate of alachlor] | 27.5% |  | 
CCc1cccc(CC)c1N(COC)C(=O)CS(=O)(=O)CCO |  | no cross-reactivity | 
CCc1cccc(CC)c1N(COC)C(=O)CSCC(NC(C)=O)C(=O)OC (stereo not shown) [methyl ester of the mercapturate] | 89.7% |  | binding by the affinity column [1]: Binding was observed
CCCCOCN(C(=O)CCl)c1c(CC)cccc1CC [butachlor, 2-chloro-2′,6′-diethyl-N-(butoxymethyl)acetanilide] |  | little to no interaction | binding by the affinity column [1]: bound; IC50 ([2]; best antiserum, butachlor-HSA screening antigen, standards in DI water): 8 ppb; inhibition of the ELISA assay for butachlor [2]: inhibited; inhibition of the ELISA assay for amidochlor [3]: not; inhibition of the ELISA assay for metolachlor [4]: not
CCc1cccc(CC)c1N(CNC(C)=O)C(=O)CCl [amidochlor, 2-chloro-2′,6′-diethyl-N-acetamidomethyl acetanilide] |  | little to no interaction | inhibition of the ELISA assay for butachlor [2]: not; IC50 ([3]; amidochlor-HSA as the screening antigen, standards in DI water): 2 ppb; IC50 ([3]; butachlor-HSA substituted for amidochlor-HSA as the screening antigen): 0.2 ppb; inhibition of the ELISA assay for amidochlor [3]: inhibited; inhibition of the ELISA assay for metolachlor [4]: not
CCc1cccc(C)c1N(C(=O)CCl)C(C)COC (stereo not shown) [metolachlor, 2-chloro-2′-ethyl-6′-methyl-N-(2-methoxy-1-methylethyl)acetanilide] |  | little to no interaction | binding by the affinity column [1]: not; inhibition of the ELISA assay for butachlor [2]: not; inhibition of the ELISA assay for amidochlor [3]: not; IC50 ([4]; best antiserum, standards in DI water): 8 ppb; inhibition of the ELISA assay for metolachlor [4]: inhibited
CCc1cccc(CC)c1N(COC)C(=O)CSCC(NC(C)=O)C(=O)O (stereo not shown) [mercapturate analog] |  |  | percent cross-reactivity (alachlor antibodies; bleed four): 18%; percent cross-reactivity (alachlor antibodies; bleed seven): 65%; binding by the affinity column [1]: not
CCc1cccc(CC)c1NC(=O)CCl [α-chloro-2′,6′-diethylacetanilide] |  | no reaction | 
CCc1cccc(CC)c1N(COC)C(=O)C[S+]([O-])CC(NC(C)=O)C(=O)O (stereo not shown) [S=O derivative] |  | significantly reduced or eliminated | 
CCc1cccc(CC)c1N(COC)C(=O)CSCC(=O)O [thioacetic acid conjugate of alachlor] | 57.0% |  | 
CCc1cccc(CC)c1N(COC)C(=O)C[S+](C)[O-] (stereo not shown) [sulfoxide analog] | 15% |  | 
CCc1cccc(CC)c1NC(=O)CSCC(NC(C)=O)C(=O)O (stereo not shown) [secondary amide mercapturate] |  | significantly reduced or eliminated | 
CCc1cccc(CC)c1N(COC)C(=O)CSC | 188% | strong interaction | 
CCc1cccc(CC)c1N(COC)C(=O)CS(=O)(=O)O [sulfonic acid] | less than 2.5% | little reaction | 
